Measured values as given in patent publication US20120122906A1, “NOVEL SULFONAMIDE DERIVATIVE AND PHARMACEUTICAL PRODUCT CONTAINING SAME” (KOWA COMPANY, LTD., priority 2009, published 2012).

Tests used:
human PPARγ2 = molecular target: T1, human PPARγ2 (Homo sapiens, UniProt P37231); assay: PPARγ activation activity, Gal4-PPARγ2 LBD luciferase transfection assay in COST cells; type: cell-based; conditions: Gal4-human PPARγ2 LBD luciferase reporter, 16 hours, rosiglitazone = 100%
T1 construct: the amino acids 182 to 505 of human PPARγ2; expressed in transfected cells
T1 sequence (P37231 182-505): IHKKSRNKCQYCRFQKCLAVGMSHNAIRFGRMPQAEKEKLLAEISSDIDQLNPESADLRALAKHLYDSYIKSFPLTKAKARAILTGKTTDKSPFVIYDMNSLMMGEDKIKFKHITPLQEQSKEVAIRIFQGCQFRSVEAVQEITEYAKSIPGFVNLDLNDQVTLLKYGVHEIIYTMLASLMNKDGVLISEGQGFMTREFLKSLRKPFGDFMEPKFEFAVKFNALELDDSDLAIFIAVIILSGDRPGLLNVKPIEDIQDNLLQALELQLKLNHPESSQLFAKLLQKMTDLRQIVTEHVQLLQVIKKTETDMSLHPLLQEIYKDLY
Protocol: The agonistic activity of the compounds of the invention on PPARγ was measured based on the transfection assay using COST cells (DS Pharma Biomedical Co., Ltd., Osaka, Japan), which are the cell line derived from the kidney of the African green monkey. COST cells were cultured under 5% CO2 concentration, and DMEM medium containing 10% fetal bovine serum, glutamic acid, and antibiotics was used as a medium.
As an expression vector, a chimera in which DNA binding domain of Gal4, which is a yeast transcription factor, and ligand binding domain of human PPARγ2 are fused, i.e., a fused product between the amino acids 1 to 147 of Gal4 transcription factor and the amino acids 182 to 505 of human PPARγ2, was used. Furthermore, as a reporter vector, a firefly luciferase containing five copies of Gal4 recognition sequence in the promoter region was used. Plasmid transfection to the cells was performed according to a method which uses jetPEI (trade name, manufactured by Funakoshi Co., Ltd., Tokyo, Japan). Furthermore, β-galactosidase expression vector was employed as an internal standard.
After the transfection of the cells, the medium was replaced with a DMEM medium (containing 1% serum) added with the compound, and the cells were further cultured for 16 hours. After that, the luciferase activity and β-galactosidase activity in the cell lysis solution were measured.
For the present test, dimethyl sulfoxide (DMSO) was used for dissolution and dilution of the test compounds, and during the cell treatment, the DMSO concentration in DMEM medium (containing 1% serum) was adjusted to 0.1%. As a positive compound, rosiglitazone (trade name, manufactured by ALEXIS Corporation, Switzerland) was used. The luciferase activity (%) of the test compounds (1 to 30 μmol/L) was calculated when the luciferase activity of rosiglitazone (3 to 10 μmol/L) is 100% and the luciferase activity in the absence of the test compound is 0%. The 50% effective concentration of the test compound (EC50, 50% effect concentration) was calculated by using SAS Preclinical Package Ver 5.0 (trade name, manufactured by SAS institute Japan Co., Tokyo, Japan), which is a statistical analysis program.
Under the same condition, the PPARγ activation activity of telmisartan, i.e., EC50, was 1 to 5 μM. In addition, it was confirmed that compounds of Examples not shown in Table 2 also have PPARγ activation activity at a concentration of 30 μM.

[1] = molecular target: T2, angiotensin II type 1 receptor (Oryctolagus cuniculus, UniProt P34976); assay: Angiotensin II antagonistic activity in isolated rabbit blood vessels (angiotensin II-induced contraction of thoracic aorta ring); conditions: 0.1 μM compound, angiotensin II (10 nM)-induced contraction, read-out: Angiotensin II activity inhibition rate (%) at 0.1 μM concentration
T2 construct: By using a specimen of isolated rabbit blood vessels; from tissue; host or cells: rabbit thoracic aorta ring (New Zealand White, male)
T2 sequence (P34976 1-359): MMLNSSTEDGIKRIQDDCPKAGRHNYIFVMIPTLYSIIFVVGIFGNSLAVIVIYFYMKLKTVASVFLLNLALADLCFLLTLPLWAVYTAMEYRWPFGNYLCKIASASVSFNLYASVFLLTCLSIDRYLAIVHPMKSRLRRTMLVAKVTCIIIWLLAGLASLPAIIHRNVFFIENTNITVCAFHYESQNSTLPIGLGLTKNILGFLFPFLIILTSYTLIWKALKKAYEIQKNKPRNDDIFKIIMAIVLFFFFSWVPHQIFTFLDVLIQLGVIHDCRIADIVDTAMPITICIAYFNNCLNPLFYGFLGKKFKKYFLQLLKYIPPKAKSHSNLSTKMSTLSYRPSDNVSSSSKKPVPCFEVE
Protocol: By using a specimen of isolated rabbit blood vessels, antagonistic activity of the compounds of the invention against angiotensin II type 1 receptor was estimated from a dose-response curve of angiotensin II-induced blood vessel contraction. Specifically, the specimen of thoracic aorta ring of a rabbit (New Zealand White: male, 2.4 to 3.0 kg) was suspended in a magnus bath filled with Krebs-Henseleite buffer (composition: 118 mM NaCl, 4.7 mM KCl, 2.55 mM CaCl2, 1.18 mM MgSO4, 1.18 mM KH2PO4, 24.88 mM NaHCO3, and 11.1 mM D-glucose), and angiotensin II (10 nM)-induced contraction was obtained in the presence of the compounds of each example (1 nmol to 10 μmol/L). During the measurement, the inside temperature of the magnus bath was maintained at 37° C. and the bath was continuously ventilated with a sufficient amount of mixed gas (95% O2 and 5% CO2). The angiotensin II-induced contraction was converted into a relative value (%) that is based on the angiotensin II (10 nM)-induced contraction in the absence of the compounds of each example. From the concentration-response curve obtained therefrom, 50% inhibition concentration (IC50 value) was calculated by using SAS Preclinical Package Ver 5.0 (trade name, manufactured by SAS institute Japan Co., Tokyo, Japan), which is a statistical analysis program.

EC50 (human PPARγ2): 3.52 µM | inhibition at 0.1 µM [1]: 100%
SMILES: CCCCc1nc(C)n(-c2ncc(OCC)cn2)c(=O)c1Cc1ccc(-c2ccccc2S(=O)(=O)NC(=O)C2CCCC2)cc1 [Example 9, N-{4′-{[4-butyl-1-(5-ethoxypyrimidin-2-yl)-2-methyl-6-oxo-1,6-dihydropyrimidin-5-yl]methyl}biphenyl-2-ylsulfonyl}cyclopentanecarboxamide]
